Measured values: patent US8580831B2, “Fluorinated aminotriazole derivatives” (Actelion Pharmaceuticals Ltd., priority 2009, dated 2013)

Target: T1, human ALX receptor (Homo sapiens, UniProt P25090)
T1 construct: expressed in transfected cells; host or cells: HEK293 (HEK293-hALXR-Ga16)
T1 sequence (P25090 1-351): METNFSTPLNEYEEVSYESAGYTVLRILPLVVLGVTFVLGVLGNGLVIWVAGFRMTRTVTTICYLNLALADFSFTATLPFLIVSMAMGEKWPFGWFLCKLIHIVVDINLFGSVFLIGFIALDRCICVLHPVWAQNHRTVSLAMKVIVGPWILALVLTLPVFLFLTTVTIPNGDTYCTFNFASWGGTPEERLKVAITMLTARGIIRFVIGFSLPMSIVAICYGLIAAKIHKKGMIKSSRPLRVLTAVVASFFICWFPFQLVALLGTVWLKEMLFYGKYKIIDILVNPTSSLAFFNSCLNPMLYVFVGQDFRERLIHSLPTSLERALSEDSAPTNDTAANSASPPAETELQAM
Assay: Intracellular calcium measurements (FLIPR), ALX receptor agonistic activity
Format: cell-based
Settings: HEK293-hALXR-Ga16 cells, calcium flux, normalized to WKYMVm 10 nM; read-out: EC50 (agonistic activity with respect to the ALX receptor)
Procedure: The ALX receptor agonistic activity of the compounds of formula (I) is determined in accordance with the following experimental method.
Intracellular Calcium Measurements:
Cells expressing recombinant human ALX receptor and the G-protein Ga16 (HEK293-hALXR-Ga16) were grown to 80% confluency in Growing Medium (GM). Cells were detached from culture dishes with a cell dissociation buffer (Invitrogen, 13151-014), and collected by centrifugation at 1′000 rpm at rt for 5 min in Assay Buffer (AB) (equal parts of Hank's BSS (Gibco, 14065-049) and DMEM without Phenol Red (Gibco, 11880-028)). After 60 min incubation at 37° C. under 5% CO2 in AB supplemented with 1 μM Fluo-4 (AM) (Invitrogen, F14202) and 20 mM HEPES (Gibco, 15630-056), the cells were washed and resuspended in AB. They were then seeded onto 384-well FLIPR assay plates (Greiner, 781091) at 50′000 cells in 70 μl per well and sedimented by centrifugation at 1′000 rpm for 1 min. Stock solutions of test compounds were made up at a concentration of 10 mM in DMSO, and serially diluted in AB to concentrations required for activation dose response curves. WKYMVm (Phoenix Peptides) was used as a reference agonist. A FLIPR Tetra instrument (Molecular Devices) was operated according to the manufacturer's standard instructions, adding 4 μl of test compound dissolved at 10 mM in DMSO and diluted prior to the experiment in assay buffer to obtain the desired final concentration. Changes in fluorescence were monitored before and after the addition of test compounds at lex=488 nm and lem=540 nm. Emission peak values above base level after compounds addition were exported after base line subtraction. Values were normalized to high-level control (WKYMVm compound, 10 nM final concentration) after subtraction of the base line value (AB addition).

Compound | EC50 [nM]
Cc1cccc(-c2oc(C)nc2C(=O)Nc2cnn(Cc3ccc(C(C)(F)F)o3)n2)c1 [Example 1, 2-Methyl-5-m-tolyl-oxazole-4-carboxylic acid {2-[5-(1,1-difluoro-ethyl)-furan-2-ylmethyl]-2H-[1,2,3]triazol-4-yl}-amide] | 8.1
CC(F)(F)c1csc(Cn2ncc(NC(=O)c3ncoc3-c3ccccc3)n2)n1 [Example 2, 5-Phenyl-oxazole-4-carboxylic acid {2-[4-(1,1-difluoro-ethyl)-thiazol-2-ylmethyl]-2H-[1,2,3]triazol-4-yl}-amide] | 19
Cc1cccc(-c2oc(C)nc2C(=O)Nc2cnn(Cc3nc(C(C)(F)F)cs3)n2)c1 [Example 3, 2-Methyl-5-m-tolyl-oxazole-4-carboxylic acid{2-[4-(1,1-difluoro-ethyl)-thiazol-2-ylmethyl]-2H-[1,2,3]triazol-4-yl}-amide] | 7.7
Cc1nc(C(=O)Nc2cnn(Cc3ccc(C(C)(F)F)o3)n2)c(-c2ccccc2)o1 [Example 4, 2-Methyl-5-phenyl-oxazole-4-carboxylic acid{2-[5-(1,1-difluoro-ethyl)-furan-2-ylmethyl]-2H-[1,2,3]triazol-4-yl}-amide] | 0.9
Cc1nc(C(=O)Nc2cnn(Cc3nc(C(C)(F)F)cs3)n2)c(-c2cc(F)cc(F)c2)o1 [Example 5, 5-(3,5-Difluoro-phenyl)-2-methyl-oxazole-4-carboxylic acid {2-[4-(1,1-difluoro-ethyl)-thiazol-2-ylmethyl]-2H-[1,2,3]triazol-4-yl}-amide] | 818
Cc1nc(C(=O)Nc2cnn(Cc3nc(C(C)(F)F)cs3)n2)c(-c2cccc(C(F)(F)F)c2)o1 [Example 6, 2-Methyl-5-(3-trifluoromethyl-phenyl)-oxazole-4-carboxylic acid {2-[4-(1,1-difluoro-ethyl)-thiazol-2-ylmethyl]-2H-[1,2,3]triazol-4-yl}-amide] | 14
CC(F)(F)c1ccc(Cn2ncc(NC(=O)c3ncoc3-c3cccc(Cl)c3)n2)o1 [Example 7, 5-(3-Chloro-phenyl)-oxazole-4-carboxylic acid{2-[5-(1,1-difluoro-ethyl)-furan-2-ylmethyl]-2H-[1,2,3]triazol-4-yl}-amide] | 17
COc1cccc(-c2ocnc2C(=O)Nc2cnn(Cc3nc(C(C)(F)F)cs3)n2)c1 [Example 8, 5-(3-Methoxy-phenyl)-oxazole-4-carboxylic acid{2-[4-(1,1-difluoro-ethyl)-thiazol-2-ylmethyl]-2H-[1,2,3]triazol-4-yl}-amide] | 69
CC(F)(F)c1csc(Cn2ncc(NC(=O)c3nc(C4CC4)oc3-c3ccccc3)n2)n1 [Example 9, 2-Cyclopropyl-5-phenyl-oxazole-4-carboxylic acid{2-[4-(1,1-difluoro-ethyl)-thiazol-2-ylmethyl]-2H-[1,2,3]triazol-4-yl}-amide] | 291
Cc1nc(C(=O)Nc2cnn(Cc3nc(C(C)(F)F)cs3)n2)c(-c2ccccc2)o1 [Example 10, 2-Methyl-5-phenyl-oxazole-4-carboxylic acid{2-[4-(1,1-difluoro-ethyl)-thiazol-2-ylmethyl]-2H-[1,2,3]triazol-4-yl}-amide] | 6.3
CC(F)(F)c1ccc(Cn2ncc(NC(=O)c3ncoc3-c3cccc(F)c3)n2)o1 [Example 11, 5-(3-Fluoro-phenyl)-oxazole-4-carboxylic acid {2-[5-(1,1-difluoro-ethyl)-furan-2-ylmethyl]-2H-[1,2,3]triazol-4-yl}-amide] | 9.9
CC(F)(F)c1csc(Cn2ncc(NC(=O)c3ncoc3-c3cccc(Cl)c3)n2)n1 [Example 12, 5-(3-Chloro-phenyl)-oxazole-4-carboxylic acid{2-[4-(1,1-difluoro-ethyl)-thiazol-2-ylmethyl]-2H-[1,2,3]triazol-4-yl}-amide] | 46
Cc1cc(F)cc(-c2oc(C)nc2C(=O)Nc2cnn(Cc3nc(C(C)(F)F)cs3)n2)c1 [Example 13, 5-(3-Fluoro-5-methyl-phenyl)-2-methyl-oxazole-4-carboxylic acid{2-[4-(1,1-difluoro-ethyl)-thiazol-2-ylmethyl]-2H-[1,2,3]triazol-4-yl}-amide] | 1130
Cc1nc(C(=O)Nc2cnn(Cc3nc(C(C)(F)F)cs3)n2)c(-c2cccc(OC(F)(F)F)c2)o1 [Example 14, 2-Methyl-5-(3-trifluoromethoxy-phenyl)-oxazole-4-carboxylic acid{2-[4-(1,1-difluoro-ethyl)-thiazol-2-ylmethyl]-2H-[1,2,3]triazol-4-yl}-amide] | 58
Cc1nc(C(=O)Nc2cnn(Cc3ccc(C(C)(F)F)o3)n2)c(-c2cccc(Cl)c2)o1 [Example 15, 5-(3-Chloro-phenyl)-2-methyl-oxazole-4-carboxylic acid{2-[5-(1,1-difluoro-ethyl)-furan-2-ylmethyl]-2H-[1,2,3]triazol-4-yl}-amide] | 23
CC(F)(F)c1ccc(Cn2ncc(NC(=O)c3ncoc3-c3ccc(F)cc3)n2)o1 [Example 16, 5-(4-Fluoro-phenyl)-oxazole-4-carboxylic acid{2-[5-(1,1-difluoro-ethyl)-furan-2-ylmethyl]-2H-[1,2,3]triazol-4-yl}-amide] | 46
Cc1cccc(-c2ocnc2C(=O)Nc2cnn(Cc3nc(C(C)(F)F)cs3)n2)c1 [Example 17, 5-m-Tolyl-oxazole-4-carboxylic acid {2-[4-(1,1-difluoro-ethyl)-thiazol-2-ylmethyl]-2H-[1,2,3]triazol-4-yl}-amide] | 11
Cc1nc(C(=O)Nc2cnn(Cc3ccc(C(C)(F)F)o3)n2)c(-c2cc(F)cc(F)c2)o1 [Example 18, 5-(3,5-Difluoro-phenyl)-2-methyl-oxazole-4-carboxylic acid {2-[5-(1,1-difluoro-ethyl)-furan-2-ylmethyl]-2H-[1,2,3]triazol-4-yl}-amide] | 661
CN(C)c1cccc(-c2ocnc2C(=O)Nc2cnn(Cc3ccc(C(C)(F)F)o3)n2)c1 [Example 19, 5-(3-Dimethylamino-phenyl)-oxazole-4-carboxylic acid {2-[5-(1,1-difluoro-ethyl)-furan-2-ylmethyl]-2H-[1,2,3]triazol-4-yl}-amide] | 33
CC(F)(F)c1csc(Cn2ncc(NC(=O)c3ncoc3-c3cccc(F)c3)n2)n1 [Example 20, 5-(3-Fluoro-phenyl)-oxazole-4-carboxylic acid {2-[4-(1,1-difluoro-ethyl)-thiazol-2-ylmethyl]-2H-[1,2,3]triazol-4-yl}-amide] | 55
COc1cccc(-c2ocnc2C(=O)Nc2cnn(Cc3ccc(C(C)(F)F)o3)n2)c1 [Example 21, 5-(3-Methoxy-phenyl)-oxazole-4-carboxylic acid {2-[5-(1,1-difluoro-ethyl)-furan-2-ylmethyl]-2H-[1,2,3]triazol-4-yl}-amide] | 35
CN(C)c1cccc(-c2ocnc2C(=O)Nc2cnn(Cc3nc(C(C)(F)F)cs3)n2)c1 [Example 22, 5-(3-Dimethylamino-phenyl)-oxazole-4-carboxylic acid {2-[4-(1,1-difluoro-ethyl)-thiazol-2-ylmethyl]-2H-[1,2,3]triazol-4-yl}-amide] | 52
Cc1cccc(-c2ocnc2C(=O)Nc2cnn(Cc3ccc(C(C)(F)F)o3)n2)c1 [Example 23, 5-m-Tolyl-oxazole-4-carboxylic acid {2-[5-(1,1-difluoro-ethyl)-furan-2-ylmethyl]-2H-[1,2,3]triazol-4-yl}-amide] | 10
Cc1nc(C(=O)Nc2cnn(Cc3ccc(C(C)(F)F)o3)n2)c(-c2cccc(C(F)(F)F)c2)o1 [Example 24, 2-Methyl-5-(3-trifluoromethyl-phenyl)-oxazole-4-carboxylic acid {2-[5-(1,1-difluoro-ethyl)-furan-2-ylmethyl]-2H-[1,2,3]triazol-4-yl}-amide] | 2.1
CC(F)(F)c1csc(Cn2ncc(NC(=O)c3ncoc3-c3ccc(F)cc3)n2)n1 [Example 25, 5-(4-Fluoro-phenyl)-oxazole-4-carboxylic acid {2-[4-(1,1-difluoro-ethyl)-thiazol-2-ylmethyl]-2H-[1,2,3]triazol-4-yl}-amide] | 221
Cc1cc(F)cc(-c2oc(C)nc2C(=O)Nc2cnn(Cc3ccc(C(C)(F)F)o3)n2)c1 [Example 26, 5-(3-Fluoro-5-methyl-phenyl)-2-methyl-oxazole-4-carboxylic acid {2-[5-(1,1-difluoro-ethyl)-furan-2-ylmethyl]-2H-[1,2,3]triazol-4-yl}-amide] | 742
